According to ChEMBL document CHEMBL2074078, “Interaction of common azole antifungals with P glycoprotein” (Antimicrob Agents Chemother, 2002):

Biological target: ATP-dependent translocase ABCB1 (Homo sapiens, UniProt P08183)
Test: TP_TRANSPORTER: inhibition of Daunorubicin transport in G185 cells
Format: functional, cell-based
Conditions: mouse

Sequence of ATP-dependent translocase ABCB1 (P08183 whole entry): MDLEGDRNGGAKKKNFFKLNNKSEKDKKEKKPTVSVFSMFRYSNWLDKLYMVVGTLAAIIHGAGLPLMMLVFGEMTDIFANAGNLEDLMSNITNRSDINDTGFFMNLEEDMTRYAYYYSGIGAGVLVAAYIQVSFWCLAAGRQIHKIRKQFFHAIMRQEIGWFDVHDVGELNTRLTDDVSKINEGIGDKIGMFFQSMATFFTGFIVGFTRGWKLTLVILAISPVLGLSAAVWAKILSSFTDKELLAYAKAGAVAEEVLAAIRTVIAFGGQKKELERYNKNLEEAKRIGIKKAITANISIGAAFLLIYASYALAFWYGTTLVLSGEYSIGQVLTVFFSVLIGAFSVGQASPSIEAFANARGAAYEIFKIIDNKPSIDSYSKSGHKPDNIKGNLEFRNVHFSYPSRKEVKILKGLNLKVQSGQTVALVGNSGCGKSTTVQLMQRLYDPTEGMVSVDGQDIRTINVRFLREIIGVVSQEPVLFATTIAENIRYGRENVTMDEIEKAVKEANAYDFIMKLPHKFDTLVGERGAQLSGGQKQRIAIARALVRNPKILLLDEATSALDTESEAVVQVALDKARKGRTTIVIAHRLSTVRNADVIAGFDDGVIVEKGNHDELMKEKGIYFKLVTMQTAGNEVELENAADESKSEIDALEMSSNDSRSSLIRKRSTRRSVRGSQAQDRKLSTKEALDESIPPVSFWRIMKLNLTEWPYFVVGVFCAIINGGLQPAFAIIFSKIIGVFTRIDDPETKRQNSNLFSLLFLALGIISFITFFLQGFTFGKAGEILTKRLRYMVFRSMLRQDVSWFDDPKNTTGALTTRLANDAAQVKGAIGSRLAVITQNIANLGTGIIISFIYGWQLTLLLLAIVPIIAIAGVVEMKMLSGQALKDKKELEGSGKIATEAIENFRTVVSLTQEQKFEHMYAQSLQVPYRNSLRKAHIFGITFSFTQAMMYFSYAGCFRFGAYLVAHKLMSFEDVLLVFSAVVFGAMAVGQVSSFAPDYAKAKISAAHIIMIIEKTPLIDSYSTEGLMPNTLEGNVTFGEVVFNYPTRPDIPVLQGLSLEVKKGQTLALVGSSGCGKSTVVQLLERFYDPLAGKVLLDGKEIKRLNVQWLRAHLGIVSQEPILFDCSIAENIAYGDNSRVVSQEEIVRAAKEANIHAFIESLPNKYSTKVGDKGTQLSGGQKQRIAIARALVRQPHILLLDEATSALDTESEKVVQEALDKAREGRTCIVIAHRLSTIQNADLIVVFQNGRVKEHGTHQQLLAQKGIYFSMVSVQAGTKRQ

For `OC(Cn1cncn1)(Cn1cncn1)c1ccc(F)cc1F` [FLUCONAZOLE], the Activity was “is not an inhibitor [-]”.
